≈ marks a conversion by molar mass, not a printed value. Calls of active or inactive are those of the source. The rule behind the calls is not given here.
Tests used:
[1] = tested on: Mycobacterium tuberculosis; assay: Antimycobacterial activity against Mycobacterium tuberculosis clinical isolate 01;092 assessed as reduction in 2 log10 bacterial colonies measured after 14 to 21 days by agar dilution method; type: functional
[2] = tested on: Mycolicibacterium smegmatis; assay: Bactericidal activity against Mycobacterium smegmatis MC2 155 assessed as log reduction in bacterial colonies at 4 times MIC measured after 24 hrs by time-kill assay; type: functional, str. MC2 155
[3] = Selectivity index, ratio of CC50 for human corneal fibroblasts assessed as reduction in ATP level to MIC90 for Mycobacterium bovis BCG ATCC 35734
[4] = tested on: Mycobacterium tuberculosis; assay: Antimycobacterial activity against Mycobacterium tuberculosis clinical isolate 01;095 assessed as reduction in 2 log10 bacterial colonies measured after 14 to 21 days by agar dilution method; type: functional
[5] = tested on: Mycobacterium tuberculosis; assay: Antimycobacterial activity against Mycobacterium tuberculosis H37Rv ATCC 27294 assessed as reduction in 2 log10 bacterial colonies measured after 14 to 21 days by agar dilution method; type: functional
[6] = Selectivity index, ratio of CC50 for human corneal fibroblasts assessed as reduction in ATP level to MIC90 for Mycobacterium smegmatis MC2 155
[7] = Volume of distribution in Sprague-Dawley rat at 2 mg/kg, iv administered as single bolus dose measured by LC-MS/MS method; type: ADME, organism-based; conditions: in vivo
[8] = tested on: Mycolicibacterium smegmatis; assay: Bactericidal activity against Mycobacterium smegmatis MC2 155 assessed as log reduction in bacterial colonies at 4 times MIC measured after 3 hrs by time-kill assay; type: functional, str. MC2 155
[9] = tested on: Mycolicibacterium smegmatis; assay: Bactericidal activity against Mycobacterium smegmatis MC2 155 assessed as log reduction in bacterial colonies at 2 times MIC measured after 6 hrs by time-kill assay; type: functional, str. MC2 155
[10] = tested on: Mycolicibacterium smegmatis; assay: Induction of membrane integrity impairment in Mycobacterium smegmatis MC2 155 at 2 times MIC by SYTO-9/propium iodide staining based Baclight assay relative to control; type: functional, str. MC2 155
Lipid bilayer [11] = assay: Induction of membrane damage in CI/DOPG/DOPI large unilamellar vesicles assessed as calcein leakage at lower compound to lipid ratio by fluorescence based […] assay relative to control
[12] = Tmax in Sprague-Dawley rat at 2 mg/kg administered via oral gavage measured by LC-MS/MS method; type: ADME, organism-based; conditions: in vivo
[13] = Clearance in Sprague-Dawley rat at 2 mg/kg, iv administered as single bolus dose measured by LC-MS/MS method; type: ADME, organism-based; conditions: in vivo
[14] = tested on: Mycolicibacterium smegmatis; assay: Induction of impaired membrane integrity in Mycobacterium smegmatis MC2 155 assessed as reduction in membrane integrity at MIC by SYTO-9/propium iodide stain based Baclight assay relative to control; type: functional, str. MC2 155; set-up: scale not given: the % may be the effect or the level left
[15] = AUC (0 to infinity) in Sprague-Dawley rat at 2 mg/kg, administered via oral gavage measured by LC-MS/MS method; type: ADME, organism-based; set-up: dose 2 mg/kg, time infinity, route oral; conditions: in vivo
[16] = Oral bioavailability in Sprague-Dawley rat at 2 mg/kg measured by LC-MS/MS method; type: ADME, organism-based; conditions: in vivo
[17] = tested on: Mycolicibacterium smegmatis; assay: Bactericidal activity against Mycobacterium smegmatis MC2 155 measured after 2 days by time-kill assay; type: functional; conditions: str. MC2 155
[18] = Terminal half life in Sprague-Dawley rat at 2 mg/kg administered via oral gavage measured by LC-MS/MS method; type: ADME, organism-based; conditions: in vivo, read-out: beta t1/2 (converted)
[19] = tested on: Mycolicibacterium smegmatis; assay: Bactericidal activity against Mycobacterium smegmatis MC2 155 assessed as log reduction in bacterial colonies at 3.2 uM measured after 6 hrs by time-kill assay; type: functional, str. MC2 155
[20] = Terminal half life in Sprague-Dawley rat at 2 mg/kg, iv administered as single bolus dose measured by LC-MS/MS method; type: ADME, organism-based; conditions: in vivo, read-out: beta t1/2 (converted)
[21] = Cmax in Sprague-Dawley rat at 2 mg/kg, iv administered as single bolus dose measured by LC-MS/MS method; type: ADME, organism-based; set-up: dose 2 mg/kg, route intravenous; conditions: in vivo
[22] = Cmax in Sprague-Dawley rat at 2 mg/kg administered via oral gavage measured by LC-MS/MS method; type: ADME, organism-based; set-up: dose 2 mg/kg, route oral; conditions: in vivo
[23] = tested on: Mycolicibacterium smegmatis; assay: Bactericidal activity against Mycobacterium smegmatis MC2 155 assessed as log reduction in bacterial colonies at 2 times MIC measured after 3 hrs by time-kill assay; type: functional, str. MC2 155
Lipid bilayer [24] = assay: Induction of membrane damage in CI/DOPG/DOPI large unilamellar vesicles assessed as calcein leakage at 1:2 compound to lipid ratio by fluorescence based […] assay relative to control
[25] = AUC (0 to infinity) in Sprague-Dawley rat at 2 mg/kg, iv administered as single bolus dose measured by LC-MS/MS method; type: ADME, organism-based; set-up: dose 2 mg/kg, route intravenous, time infinity; conditions: in vivo
Lipid bilayer [26] = assay: Induction of membrane damage in CI/DOPG/DOPI large unilamellar vesicles assessed as calcein leakage at 1:4 compound to lipid ratio by fluorescence based […] assay relative to control
Lipid bilayer [27] = assay: Induction of membrane damage in CI/DOPG/DOPI large unilamellar vesicles assessed as calcein leakage at 1:8 compound to lipid ratio by fluorescence based […] assay relative to control
[28] = tested on: Mycolicibacterium smegmatis; assay: Induction of membrane disruption in Mycobacterium smegmatis MC2 155 assessed as increased cytoplasmic membrane permeability at 60 uM up to 3 hrs by Sytox green uptake assay; type: functional; conditions: str. MC2 155

COc1c(OCCCCN2CCOCC2)cc2oc3cc(OCCCCN4CCOCC4)c(CC=C(C)C)c(O)c3c(=O)c2c1CC=C(C)C
MIC [1]: 4 µg/mL (≈ 5.77 µM)
Activity [2]: 2.4
Selectivity Index [3]: 15 - 40
MIC [4]: 4 µg/mL (≈ 5.77 µM)
MIC [5]: 4 µg/mL (≈ 5.77 µM)
Selectivity Index [6]: 15 - 40

CCCN(CCC)CCCCOc1cc2oc3cc(OCCCCN(CCC)CCC)c(OC)c(CC=C(C)C)c3c(=O)c2c(O)c1CC=C(C)C
Vd [7]: 1.28 L/kg
Activity [8]: 4.15
Activity [9]: 4.15
Activity [10]: 78.8%
Selectivity Index [3]: 15 - 40
Activity (Lipid bilayer [11]): < 10%
Tmax [12]: 4 h
CL [13]: 1.48 L/h/kg
Activity [14]: 28%
AUC(0-inf) [15]: 3300 ng·h/mL
bioavailability [16]: 14 to 15%
Activity [17]: Dose-dependent effect
half-life [18]: 287 min
Activity [19]: 1.6
half-life [20]: 596 min
Cmax [21]: 1500 ng/mL
Cmax [22]: 320 ng/mL
Activity [23]: 2.85
Activity (Lipid bilayer [24]): 13.3%
AUC [25]: 22.78 µg·h/mL
Selectivity Index [6]: 15 - 40

CCN(CC)CCCCOc1cc2oc3cc(OCCCCN(CC)CC)c(OC)c(CC=C(C)C)c3c(=O)c2c(O)c1CC=C(C)C
MIC [1]: 2 µg/mL (≈ 3.01 µM)
Activity (Lipid bilayer [26]): 23.4%
Activity (Lipid bilayer [27]): 14.6%
MIC [4]: 4 µg/mL (≈ 6.02 µM)
Activity [28]: Active
Activity (Lipid bilayer [24]): 47%
MIC [5]: 2 µg/mL (≈ 3.01 µM)

From ChEMBL document CHEMBL3872220, “Amphiphilic xanthones as a potent chemical entity of anti-mycobacterial agents with membrane-targeting properties” (Eur J Med Chem, 2016)
